How the values were obtained:
Assay in all cases: relative viability (nuclei count vs DMSO), 5 days (fraction); higher = more cells survive
CUDC-101 + Dasatinib = compound: C#Cc1cccc(Nc2ncnc3cc(OC)c(OCCCCCCC(=O)NO)cc23)c1 [CUDC-101] + Cc1nc(Nc2ncc(C(=O)Nc3c(C)cccc3Cl)s2)cc(N2CCN(CCO)CC2)n1 [Dasatinib] (partner 0.075 µM)
Outline: (§1)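 Relative viability divides the nuclei count in treated wells by that in vehicle wells. Lung cancer cell lines were seeded in 1536-well plates, dosed by pin tool the next day, and fixed and stained after 5 days in one step with final 0.05% Triton X-100, 1% formaldehyde and 1 ug/ml Hoechst. Dosing was a single drug or a fixed anchor-drug dose plus five library-drug doses (not always all listed) in √10 steps, and values are medians of duplicate plates imaged at 4×.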

CUDC-101 + Vorinostat = compound: C#Cc1cccc(Nc2ncnc3cc(OC)c(OCCCCCCC(=O)NO)cc23)c1 [CUDC-101] + O=C(CCCCCCC(=O)Nc1ccccc1)NO [Vorinostat] (partner 1 µM)
Outline: as §1

[1] = compound: C1=CC=C2C(=C1)N=C(S2)C(C#N)C3=NC(=NC=C3)NCCC4=CN=CC=C4 + CS(=O)(=O)CCNCc1ccc(-c2ccc3ncnc(Nc4ccc(OCc5cccc(F)c5)c(Cl)c4)c3c2)o1 [Lapatinib] (partner 2 µM)
Outline: as §1

[2] = compound: C1=CC=C2C(=C1)N=C(S2)C(C#N)C3=NC(=NC=C3)NCCC4=CN=CC=C4 + Nc1ncn([C@H]2C[C@H](O)[C@@H](CO)O2)c(=O)n1 [Decitabine] (partner 2 µM)
Outline: as §1

Cell Line	relative viability (CUDC-101 + Dasatinib; first compound 0.01 µM)	relative viability (CUDC-101 + Dasatinib; first compound 0.03162 µM)	relative viability (CUDC-101 + Dasatinib; first compound 0.1 µM)	relative viability (CUDC-101 + Dasatinib; first compound 0.3162 µM)	relative viability (CUDC-101 + Dasatinib; first compound 1 µM)	relative viability (CUDC-101 + Vorinostat; first compound 0.01 µM)	relative viability (CUDC-101 + Vorinostat; first compound 0.03162 µM)	relative viability (CUDC-101 + Vorinostat; first compound 0.1 µM)	relative viability (CUDC-101 + Vorinostat; first compound 0.3162 µM)	relative viability (CUDC-101 + Vorinostat; first compound 1 µM)	relative viability ([1]; first compound 0.005 µM)	relative viability ([1]; first compound 0.01581 µM)	relative viability ([1]; first compound 0.05 µM)	relative viability ([1]; first compound 0.1581 µM)	relative viability ([1]; first compound 0.5 µM)	relative viability ([2]; first compound 0.005 µM)	relative viability ([2]; first compound 0.01581 µM)	relative viability ([2]; first compound 0.1581 µM)	relative viability ([2]; first compound 0.5 µM)	relative viability ([2]; first compound 0.05 µM)
LU99A	0.596	0.508	0.507	0.64	0.432	0.529	0.477	0.452	0.389	0.219	0.704	1.02	0.886	1.17	0.976	0.693	0.966	1	0.817	–
PC-3 [JPC-3]	0.954	0.932	0.753	0.483	0.542	0.753	0.691	0.387	0.383	0.335	0.439	0.441	0.423	0.484	0.429	0.952	–	0.825	0.762	0.758
H3255	0.429	0.373	–	0.298	0.171	0.824	0.786	–	1.07	0.368	0.225	0.227	0.234	0.261	0.251	0.574	0.561	0.639	0.726	0.561
LXF-289	0.248	0.203	0.245	0.394	0.182	0.755	0.757	0.71	0.594	0.447	0.803	0.914	0.915	1	0.864	0.345	0.419	0.405	0.336	0.4
PC-14	0.292	0.232	0.0804	0.0597	0.0289	0.806	0.572	0.137	0.148	0.0543	0.305	0.331	0.303	0.454	0.296	0.207	0.246	0.203	0.179	0.178
NCI-H661	0.926	0.926	0.862	0.815	0.386	0.783	0.764	0.748	0.534	0.362	0.512	0.533	0.451	0.519	0.476	0.467	0.52	0.622	0.589	0.529
EKVX	0.374	0.499	0.571	0.439	0.362	0.658	0.658	0.623	0.617	0.363	0.237	0.185	0.201	0.211	0.195	0.152	0.286	0.329	0.23	0.309
NCI-H322M	0.28	0.243	0.224	0.236	0.276	0.858	0.81	0.799	0.596	0.494	0.545	0.487	0.592	0.687	0.504	0.579	0.773	0.711	0.736	0.775
SK-MES-1	0.333	0.394	0.367	0.417	0.207	1.04	1.04	1.1	1.12	0.915	0.455	0.542	0.408	0.473	0.445	0.48	0.405	0.409	0.41	0.372
NCI-H1355	0.747	0.672	0.717	0.741	0.523	0.693	0.663	0.636	0.62	0.497	1.18	1.03	1	1.14	0.931	0.367	0.376	0.358	0.366	0.381
NCI-H2126	0.7	0.588	0.612	0.579	0.481	0.862	0.777	0.713	0.704	0.452	0.75	0.718	0.721	0.873	0.685	0.495	0.579	0.546	0.577	0.565
NCI-H520	0.196	0.166	0.192	0.259	0.218	0.769	0.686	0.488	0.397	0.32	0.672	0.818	1.01	1.15	0.819	0.46	0.449	0.616	0.513	0.482
NCI-H1755	0.4	0.376	0.462	0.519	0.377	0.759	0.741	0.73	0.67	0.637	0.874	1.08	1	1.17	0.78	0.673	0.789	0.75	0.7	0.683
NCI-H358	0.157	0.164	0.166	0.16	0.131	0.697	0.733	0.695	0.447	0.128	0.436	0.413	0.463	0.518	0.481	0.234	0.21	0.216	0.206	0.221
NCI-H1650	0.302	0.292	0.321	0.324	0.221	0.532	0.352	0.517	0.615	0.41	0.894	0.658	0.758	0.829	0.863	0.335	0.333	0.432	0.407	0.496
NCI-H2347	0.308	0.323	0.261	0.337	0.346	0.741	0.583	0.631	0.415	0.46	1.08	0.909	0.846	1.04	0.91	0.638	0.634	0.683	0.654	0.556

Cell Line	relative viability (CUDC-101 + Dasatinib; first compound 0.01 µM)	relative viability (CUDC-101 + Dasatinib; first compound 0.03162 µM)	relative viability (CUDC-101 + Dasatinib; first compound 0.1 µM)	relative viability (CUDC-101 + Dasatinib; first compound 0.3162 µM)	relative viability (CUDC-101 + Dasatinib; first compound 1 µM)	relative viability (CUDC-101 + Vorinostat; first compound 0.01 µM)	relative viability (CUDC-101 + Vorinostat; first compound 0.03162 µM)	relative viability (CUDC-101 + Vorinostat; first compound 0.1 µM)	relative viability (CUDC-101 + Vorinostat; first compound 0.3162 µM)	relative viability (CUDC-101 + Vorinostat; first compound 1 µM)	relative viability ([1]; first compound 0.005 µM)	relative viability ([1]; first compound 0.01581 µM)	relative viability ([1]; first compound 0.05 µM)	relative viability ([1]; first compound 0.1581 µM)	relative viability ([1]; first compound 0.5 µM)	relative viability ([2]; first compound 0.005 µM)	relative viability ([2]; first compound 0.01581 µM)	relative viability ([2]; first compound 0.1581 µM)	relative viability ([2]; first compound 0.5 µM)	relative viability ([2]; first compound 0.05 µM)
HCC-15	0.641	0.622	0.628	0.672	0.473	0.828	0.802	0.77	0.716	0.448	0.798	0.84	0.817	0.947	0.805	0.568	0.608	0.66	0.564	0.644
NCI-H23	0.777	0.795	0.826	0.856	0.733	0.71	0.731	0.683	0.661	0.335	–	1.16	1.12	1.22	1.14	–	0.306	0.323	0.338	0.329
LC-2-ad	0.737	0.879	0.638	0.69	0.298	0.721	0.716	0.703	0.658	0.538	0.648	0.976	0.946	1	0.634	0.698	0.819	0.827	0.726	0.818
LCLC-97TM1	0.821	0.804	0.864	0.855	0.596	0.815	0.778	0.663	0.56	0.195	0.971	0.803	0.897	0.954	0.674	0.192	0.215	0.237	0.222	0.293
HOP-62	0.678	0.656	0.692	0.631	0.438	0.716	0.57	0.665	0.524	0.261	0.874	1	0.893	1.12	0.903	0.219	0.184	0.234	0.248	0.263
NCI-H2085	0.205	0.274	0.221	0.196	0.215	0.772	0.771	0.814	0.801	0.628	0.83	0.737	0.763	0.891	0.761	0.518	0.555	0.502	0.533	0.585
NCI-H2087	0.795	0.946	0.841	0.971	0.718	0.928	0.886	0.684	0.528	0.38	1.05	0.898	1.03	1.14	0.966	0.255	0.266	0.367	0.282	0.345
NCI-H1395	0.418	0.385	0.438	0.434	0.363	0.81	0.753	0.797	0.661	0.489	0.953	–	1.17	1.08	1.08	0.721	–	0.769	0.742	0.732
COR-L 105	0.337	0.382	0.277	0.418	0.122	0.921	0.663	0.831	0.611	0.371	0.362	0.336	0.342	0.372	0.369	0.597	0.628	0.637	0.642	0.638
A-427	0.745	0.659	0.649	0.608	0.389	0.862	0.81	0.854	0.817	0.433	0.78	0.889	1.01	1.12	1.08	0.599	0.495	0.555	0.574	0.568
NCI-H1975	0.287	0.373	0.315	0.413	0.331	0.687	0.712	0.781	0.75	0.642	0.554	0.91	0.831	0.908	0.62	0.436	0.341	0.432	0.434	0.334
NCI-H1993	0.594	0.666	0.686	0.571	0.541	0.748	1.01	0.688	0.666	0.426	0.652	0.779	0.824	0.747	0.809	0.663	0.641	0.699	0.59	0.607
NCI-H2023	0.564	0.635	0.616	0.748	0.461	0.781	0.654	0.716	0.703	0.435	0.793	0.85	0.793	1.2	0.711	0.245	0.236	0.245	0.243	0.209
201T	0.578	0.563	0.579	0.591	0.511	1.02	0.954	0.937	0.982	0.842	0.981	0.958	1.01	1.09	1.02	0.772	0.91	0.833	0.911	0.868
LK-2	0.298	0.389	0.25	0.284	0.157	0.37	0.407	0.228	0.23	0.158	–	0.931	0.917	1.15	0.819	0.27	0.288	0.352	0.352	0.39
SW 1573	0.62	0.764	0.517	0.498	0.358	0.979	0.689	0.675	0.773	0.468	1.12	1.13	1.04	1.35	1.12	0.36	0.497	0.436	0.504	0.252

Source: the supplement of paper PMC10307832
